From patent publication US9902733B2, “Furopyridines as inhibitors of protein kinases” (MASARYKOVA UNIVERZITA, priority 2014, dated 2018)
Where two headings read alike, the source gives them in different places.

Assays:
CLK2 (h) = target: T1, CLK2 (h) (Homo sapiens, UniProt P49760); assay: CLK2 KinaseProfiler radiometric protein kinase assay; format: biochemical
T1 construct: purchased Merck Millipore (KinaseProfiler service)
Description: (§1) In vitro essays were performed by the company Merck Millipore in their KinaseProfiler radiometric protein kinase assay as paid commercial service. The compounds IC50 values for inhibition of individual protein kinases were determined. Dose-response curves were plotted from inhibition data generated, each in duplicate, from 10 point serial dilutions of inhibitory compounds. Concentration of compound was plotted against % kinase activity. To generate IC50 values, the dose-response curves were fitted to a standard sigmoidal curve and IC50 values were derived by standard nonlinear regression analysis.
(§2) All tested compounds were prepared in 100% DMSO to final assay concentrations either 0.5 mM (for the concentration row A, see below) or 0.05 mM (for the concentration row B). This working stock of the compound was added to the assay well as the first component in the reaction, followed by the remaining components as detailed below. The stock solution was added to the individual assay wells in such amounts that the concentrations of the compound were either in the row A (0.001 μM, 0.003 μM, 0.01 μM, 0.03 μM, 0.1 μM, 0.3 μM, 1.0 μM, 3.0 μM, and 10.0 μM) or in the row B (0.0001 μM, 0.0003 μM, 0.001 μM, 0.003 μM, 0.01 μM, 0.03 μM, 0.1 μM, 0.3 μM, and 1.0 μM). There was no pre-incubation step between the compound and the kinase prior to initiation of the reaction.
(§3) The positive control wells contained all components of the reaction, except the compound of interest; however, DMSO (at a final concentration of 2%) was included in these wells to control for solvent effects. The blank wells contained all components of the reaction, with staurosporine as a reference inhibitor replacing the compound of interest. This abolished kinase activity and established the base-line (0% kinase activity remaining).
CLK2 (h) was diluted in the buffer (20 mM MOPS (3-(N-morpholino)propanesulfonic acid), 1 mM EDTA (ethylendiaminotetraacetic acid), 0.01% Brij-35 (detergent), 5% Glycerol, 0.1% β-mercaptoethanol, 1 mg/mL BSAs) to the concentration of 1.01 mg/mL prior to addition to the reaction mix.
The above stock solution of CLK2(h) was added to a mixture containing 8 mM MOPS pH 7.0, 0.2 mM EDTA, and 20 μM […](p) EDEEE in such amount that the resulting concentration of CLK2(h) was 2.1 nM. This mixture was added to the stock solution of the tested compound. The reaction was initiated by the addition of the MgATP mix in such amount that the resulting concentration of Mg acetate in the reaction mixture was 10 mM and [γ-^33P-ATP] (specific activity approx. 500 cpm/pmol) was 15 μM. After incubation for 40 minutes at room temperature, the reaction was stopped by the addition of 3% phosphoric acid solution. 10 μL of the reaction was then spotted onto a P30 filtermat and washed three times for 5 minutes in 75 mM phosphoric acid and once in methanol prior to drying and scintillation counting.

DYRK2 = target: T2, DYRK2 (Homo sapiens, UniProt Q92630); assay: DYRK2 KinaseProfiler radiometric protein kinase assay; format: biochemical
T2 construct: purchased Merck Millipore (KinaseProfiler service)
T2 sequence (Q92630 1-601): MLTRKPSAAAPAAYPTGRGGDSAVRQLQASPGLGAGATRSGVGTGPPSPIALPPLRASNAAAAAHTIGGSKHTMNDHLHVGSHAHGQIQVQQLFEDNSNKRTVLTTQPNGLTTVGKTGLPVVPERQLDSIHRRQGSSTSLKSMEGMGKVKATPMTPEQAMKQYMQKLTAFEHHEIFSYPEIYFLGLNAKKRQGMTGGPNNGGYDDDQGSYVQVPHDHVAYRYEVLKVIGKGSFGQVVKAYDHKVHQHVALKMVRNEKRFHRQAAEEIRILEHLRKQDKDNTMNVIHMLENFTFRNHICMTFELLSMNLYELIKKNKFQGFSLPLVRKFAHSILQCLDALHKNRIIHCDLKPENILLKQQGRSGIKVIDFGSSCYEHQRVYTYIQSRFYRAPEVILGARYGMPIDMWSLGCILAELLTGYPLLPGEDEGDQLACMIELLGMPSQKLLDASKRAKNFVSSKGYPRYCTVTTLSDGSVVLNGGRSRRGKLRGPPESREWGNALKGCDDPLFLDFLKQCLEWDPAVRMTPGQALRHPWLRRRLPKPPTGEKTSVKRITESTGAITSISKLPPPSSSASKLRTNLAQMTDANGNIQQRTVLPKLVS
Description: as §1, §2, §3

T1 sequence (P49760 whole entry): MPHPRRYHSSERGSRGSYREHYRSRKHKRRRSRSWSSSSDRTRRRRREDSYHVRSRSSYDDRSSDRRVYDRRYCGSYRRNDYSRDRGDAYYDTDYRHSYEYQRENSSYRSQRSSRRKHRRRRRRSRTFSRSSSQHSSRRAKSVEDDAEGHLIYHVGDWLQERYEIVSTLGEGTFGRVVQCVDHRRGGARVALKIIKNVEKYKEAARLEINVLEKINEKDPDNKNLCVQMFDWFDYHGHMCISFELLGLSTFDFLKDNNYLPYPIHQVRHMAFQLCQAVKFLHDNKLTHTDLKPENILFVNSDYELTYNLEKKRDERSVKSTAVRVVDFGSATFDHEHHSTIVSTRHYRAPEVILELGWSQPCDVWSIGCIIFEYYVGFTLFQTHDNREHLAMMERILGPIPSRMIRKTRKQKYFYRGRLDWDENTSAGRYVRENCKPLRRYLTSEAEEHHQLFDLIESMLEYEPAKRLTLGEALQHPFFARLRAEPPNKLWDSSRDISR

IC50 (CLK2 (h); radiometric, 15 μM ATP, 40 minutes at room temperature, read-out: CLK2 IC50) [nM]	IC50 (DYRK2) [nM]	IC50 (CLK2 (h)) [nM]	SMILES
< 1000	< 5000		Cn1cc(-c2ccc3occ(-c4ccccc4)c3n2)cn1 [Preparative Example 6A]
	< 5000	< 100	c1ccc(-c2coc3ccc(-c4cn[nH]c4)nc23)cc1 [Preparative Example 9]
